Experimental data reported in US11166934B2 (Azcuris Co., Ltd., priority 2017, dated 2021).
Where two headings read alike, the source gives them in different places.

Assays:
binding of TSLP to TSLPR = binding of TSLP to TSLPR (Homo sapiens, UniProt Q969D9); assay: ELISA-based TSLP-TSLPR interaction assay (FLAG-TSLP, TSLPR-His, HRP); settings: for inhibitory effects on the binding of TSLP to TSLP receptor (in words): treated alone
[1] = tested on: TSLP-mediated phosphorylation of STAT5 in HMC-1 human mast cell line; assay: Cell-based efficacy evaluation using FACS: intracellular phosphorylation of STAT5 after TSLP treatment of HMC-1 cells; settings: for Degrees of intracellular phosphorylation of STAT5 molecules (%): HMC-1 cells, TSLP 100 ng/mL, 30 min, control treated with TSLP alone = 100%
Procedure: The binding of TSLP to TSLP receptor activates various signaling pathways, mainly the JAK/STAT pathway. TSLP-mediated signaling is well known to specifically phosphorylate STAT5 among STAT molecules.
In this example, this fact was confirmed through the following experiment.
First, HMC-1, a human mast cell line, was cultured until an appropriate number of cells were maintained in a 96-well plate. […] Cells were fixed with Cytofix. Subsequently, cells were permeabilized with a permeabilization buffer and stained with anti-pSTAT5 antibody at 4° C. for 30 min. Cells were washed three times with the same buffer and analyzed by flow cytometry. […] The intracellular phosphorylation of STAT5 molecules in the control was 100%.

[2] = read-out: TSLP-TSLPR inhibitions (%)

Chain of binding of TSLP to TSLPR (Q969D9 29-159): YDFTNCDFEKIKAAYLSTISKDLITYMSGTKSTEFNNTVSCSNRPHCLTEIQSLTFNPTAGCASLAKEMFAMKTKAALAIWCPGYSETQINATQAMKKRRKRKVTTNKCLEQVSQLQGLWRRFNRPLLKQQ

SMILES	inhibition at 150 µM (binding of TSLP to TSLPR; [2]) [%]	inhibition at 300 µM (binding of TSLP to TSLPR; [2]) [%]	inhibitory effects on the binding of TSLP to TSLP receptor (in words) (binding of TSLP to TSLPR)	also measured
O=c1c(O)c(-c2ccc(O)cc2)oc2cc(O)cc(O)c12 [Formula 3, kaempferol]	0.6 ± 3.7	–	–	–
O=C1/C(=C2\Nc3ccccc3C2=O)Nc2ccccc21 [Formula 4, indigo dye]	3.5 ± 2.7	–	–	–
CN(C)CCOc1nc2ccccc2c2oc(-c3ccccc3)nc12 [Formula 6, N,N-dimethyl-2-((2-phenyloxazolo[4,5-c]quinolin4-yl)oxy)ethanamine]	5.4 ± 0.7	19.3 ± 3	insignificant inhibitory effects	–
Oc1ccc(-c2[o+]c3cc(O)cc(O)c3cc2O)cc1 [Formula 2, pelargonidin chloride]	6.3 ± 0.1	13.1 ± 5.8	–	–
CN(C)CCn1c(=O)c2nc(-c3ccccc3)oc2c2ccccc21 [Formula 5, 5-(2-(dimethylamino)ethyl)-2-phenyloxazolo[4,5-c]quinolin-4(5H)-one]	10.2 ± 17	21.6 ± 3.4	insignificant inhibitory effects	inhibition at 100 µM (binding of TSLP to TSLPR; [2]): 6.5 ± 8.6%
O=c1cc(-c2ccccc2)oc2cc(O)c(O)c(O)c12 [Formula 1, baicalein]	–	–	–	inhibition at 100 µM (binding of TSLP to TSLPR; read-out: TSLP-TSLPR inhibitions (%), 0.1 mM, Table 5): 3.2 ± 1.3%; inhibition at 300 µM (binding of TSLP to TSLPR; read-out: TSLP-TSLPR inhibitions (%), 0.3 mM, Table 2): 45.8 ± 0.7%; inhibition at 300 µM (binding of TSLP to TSLPR; read-out: TSLP-TSLPR inhibitions (%), 0.3 mM, Table 6): 16.5 ± 1.6%; Degrees of intracellular phosphorylation of STAT5 molecules (%) ([1]; 3 μM): 65.7%; Degrees of intracellular phosphorylation of STAT5 molecules (%) ([1]; 10 μM): 61.6%; effect on phosphorylation of STAT5 molecules (in words) ([1]; summary of Table 1): inhibit the phosphorylation of STAT5 molecules
